Test results published in paper PMC10034409 (Frontiers in Pharmacology, 2023).
“Also recorded” adds a separate entry of the source.

Key:
AChE = biological target: T1, AChE (Homo sapiens, UniProt P22303); assay: biochemical; assay type: biochemical; settings: for AChE IC50 / IC50: mean ± SEM of 3 experiments; for Ki: mean ± SEM, mean of four values from Lineweaver-Burk plot, its secondary re-plots and Dixon plot
T1 construct: purchased Sigma Aldrich (Steinheim, Germany)
Description: (§1) The test compounds were prepared fresh immediately before each experiment. Test compounds were added to 150 µl […] phosphate buffer (pH 8.0), 200 µl methanol, and 20 µl of the test enzymes and were incubated at 25°C for 15 min. A sample with an equal amount of solvent (ethanol) in place of the test compounds served as a negative control. 10 μl of DTNB reagent was added to the samples, and the reaction was initiated by adding 10 μl acetylthiocholine (ATCh) or butyrylthiocholine (BTCh) for the estimation of AChE and BChE, respectively. All the experiments were conducted in triplicate. […] The rate of enzyme inhibition was calculated as the change in optical density per minute (OD/min).
(§2) The enzyme inhibition activities of serially diluted concentrations of test compounds were measured, and the IC50 values were calculated using EZ-Fit Enzyme Kinetics Program.
(§3) The dissociation constant (Ki) values, which signified the dissociation of the enzyme-inhibitor complex into free enzyme and inhibitor, were also determined. […] These velocities were obtained over a range of substrate concentrations between 0.1 and 0.4 mM for ATCh and 0.05 and 0.2 mM for BTCh. The assay conditions for measurement of the residual activities of all inhibitors were identical to the aforementioned spectrophotometric assay procedure, except that the fixed concentrations of inhibiting compounds were used in the assay medium. Assays were conducted in triplicate at each concentration of the inhibitor.
(§4) The inhibition patterns of tested coumarins were determined by the graphical views of Dixon plots, Lineweaver-Burk plots, and their secondary re-plots. […] The linear regression analysis values, correlation coefficient, slope, intercept, and standard errors were obtained using the same software. Two different methods were applied to monitor the effects of the test sample on both Michaelis constant (K m ) and maximum velocity (V max) values. […] The secondary re-plots of the Lineweaver-Burk were also constructed in two ways; firstly, the reciprocal of apparent V max (1/V maxapp ) values were determined at each intersection point for every inhibitor concentration line on the y-axis of the Lineweaver-Burk plot and then re-plotted against different concentrations of the respective inhibitor. […] The secondary re-plot of the Dixon plot was constructed as the slope of each line of substrate concentration in the original Dixon plot against the reciprocals of substrate concentrations.

BChE = biological target: T2, BChE (Homo sapiens, UniProt P06276); assay: biochemical; assay type: biochemical; settings: for Ki: mean ± SEM, mean of four values from Lineweaver-Burk plot, its secondary re-plots and Dixon plot
T2 construct: purchased Sigma Aldrich (Steinheim, Germany)
Description: as §1, §2, §3, §4

T2 sequence (P06276 29-602): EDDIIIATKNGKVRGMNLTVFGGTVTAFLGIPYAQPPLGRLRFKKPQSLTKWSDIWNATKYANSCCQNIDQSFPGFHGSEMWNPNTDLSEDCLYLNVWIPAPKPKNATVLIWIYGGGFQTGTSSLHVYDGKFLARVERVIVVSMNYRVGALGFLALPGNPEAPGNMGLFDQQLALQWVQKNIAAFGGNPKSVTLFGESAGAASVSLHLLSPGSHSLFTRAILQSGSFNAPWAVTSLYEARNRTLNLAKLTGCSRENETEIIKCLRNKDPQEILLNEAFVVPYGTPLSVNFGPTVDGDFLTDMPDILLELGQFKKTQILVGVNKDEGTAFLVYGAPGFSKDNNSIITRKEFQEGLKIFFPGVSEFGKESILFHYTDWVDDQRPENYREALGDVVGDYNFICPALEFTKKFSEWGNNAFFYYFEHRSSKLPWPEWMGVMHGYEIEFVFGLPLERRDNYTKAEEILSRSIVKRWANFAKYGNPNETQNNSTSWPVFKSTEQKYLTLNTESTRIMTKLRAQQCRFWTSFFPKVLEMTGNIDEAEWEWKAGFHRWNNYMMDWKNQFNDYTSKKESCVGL
T1 sequence (P22303 32-614): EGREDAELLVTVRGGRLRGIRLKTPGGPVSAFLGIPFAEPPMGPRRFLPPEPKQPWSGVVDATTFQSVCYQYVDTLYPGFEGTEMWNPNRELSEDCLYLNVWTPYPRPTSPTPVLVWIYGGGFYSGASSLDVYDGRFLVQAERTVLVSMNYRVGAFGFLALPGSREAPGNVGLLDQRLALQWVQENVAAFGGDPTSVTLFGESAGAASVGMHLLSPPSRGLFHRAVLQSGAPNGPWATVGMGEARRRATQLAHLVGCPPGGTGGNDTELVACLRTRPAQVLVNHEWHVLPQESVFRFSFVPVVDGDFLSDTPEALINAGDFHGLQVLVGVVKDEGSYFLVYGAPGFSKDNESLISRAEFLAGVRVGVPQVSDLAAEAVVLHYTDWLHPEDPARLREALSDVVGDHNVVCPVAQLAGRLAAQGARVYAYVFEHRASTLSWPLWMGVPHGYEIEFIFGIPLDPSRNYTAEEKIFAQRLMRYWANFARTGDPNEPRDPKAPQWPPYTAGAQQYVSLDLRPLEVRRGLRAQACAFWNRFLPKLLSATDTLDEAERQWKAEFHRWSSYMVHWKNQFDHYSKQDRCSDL

Row | Structure (SMILES) | AChE IC50 (AChE) | AChE IC50 (AChE; listed as 2′-O-ethylmurrangatin (1)) | BChE IC50 (BChE; mean ± SEM of 3 experiments) | IC50 (BChE; mean ± SEM of 3 experiments) [µM] | Type of inhibition of AChE (in words) (AChE) | IC50 (AChE) [µM] | Ki (AChE) [µM] | AChE Type of inhibition (AChE; table abbreviations) | Type of inhibition of BChE (in words) (BChE) | Ki (BChE) [µM] | BChE Type of inhibition (BChE; table abbreviations)
1 | C=C(C)[C@@H](OCC)[C@@H](O)c1c(OC)ccc2ccc(=O)oc12 [2′-O-Ethylmurrangatin (1), 2′-O-ethylmurrangatin] | No activity upto 1 mM | not active at 1 mM conc; also recorded: did not show any inhibition | very weak activity | 843 ± 13 | – | – | – | – | – | – | –
2 | COc1ccc2ccc(=O)oc2c1C(O)C(=O)C(C)C (centres unmarked) [Murranganone (2), murranganone] | – | – | – | 74.3 ± 0.75 | pure non-competitive inhibition | 79.1 ± 2.02 | 50 ± 0.58 | NC ^d | mixed-type inhibition | 22 ± 0.44 | LM ^e
3 | COc1ccc2ccc(=O)oc2c1C(OC(=O)CC(C)C)C(=O)C(C)C (centres unmarked) [Paniculatin (3), paniculatin] | – | – | – | – | mixed-type inhibitor | 31.6 ± 0.03 | 43 ± 0.65 | – | mixed-type inhibitor | 22 ± 0.6 | –
